Source: article PMC9157009, “Protein proximity networks and functional evaluation of the casein kinase 1 gamma family reveal unique roles for CK1γ3 in WNT signaling” (The Journal of Biological Chemistry, 2022)
Values joined by “and” are separate entries in the source; they are usually repeats but may differ in a detail not shown here. Equal values may be shown once.

Assays:
CK1γ1 [1] = biological target: T1, CK1γ1 (Homo sapiens, UniProt Q9HCP0); assay: Eurofins kinase enzymatic radiometric assay, CK1γ1; type: biochemical; settings: Km = ATP, 9-pt curve in duplicate
T1 construct: purchased Eurofins
T1 sequence (Q9HCP0 whole entry): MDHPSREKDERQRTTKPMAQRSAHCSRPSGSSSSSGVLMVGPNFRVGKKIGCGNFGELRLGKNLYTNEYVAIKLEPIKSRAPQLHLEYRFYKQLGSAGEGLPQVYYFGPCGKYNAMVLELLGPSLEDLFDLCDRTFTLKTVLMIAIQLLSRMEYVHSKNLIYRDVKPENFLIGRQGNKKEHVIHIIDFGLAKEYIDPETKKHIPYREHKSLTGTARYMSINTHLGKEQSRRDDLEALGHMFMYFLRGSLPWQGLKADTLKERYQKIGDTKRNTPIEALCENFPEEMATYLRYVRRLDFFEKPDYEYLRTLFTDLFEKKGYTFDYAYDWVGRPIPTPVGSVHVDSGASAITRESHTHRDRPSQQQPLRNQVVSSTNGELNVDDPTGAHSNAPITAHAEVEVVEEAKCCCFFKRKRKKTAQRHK
Source text: (§1) Details related to the substrate used, protein constructs, controls, and assay protocol for each kinase assay are included on the Eurofins website: https://www.eurofinsdiscoveryservices.com/.

CK1γ2 = biological target: T2, CK1γ2 (Homo sapiens, UniProt P78368); assay: Eurofins kinase enzymatic radiometric assay, CK1γ2; type: biochemical; settings: Km = ATP, 9-pt curve in duplicate
T2 construct: purchased Eurofins
T2 sequence (P78368 whole entry): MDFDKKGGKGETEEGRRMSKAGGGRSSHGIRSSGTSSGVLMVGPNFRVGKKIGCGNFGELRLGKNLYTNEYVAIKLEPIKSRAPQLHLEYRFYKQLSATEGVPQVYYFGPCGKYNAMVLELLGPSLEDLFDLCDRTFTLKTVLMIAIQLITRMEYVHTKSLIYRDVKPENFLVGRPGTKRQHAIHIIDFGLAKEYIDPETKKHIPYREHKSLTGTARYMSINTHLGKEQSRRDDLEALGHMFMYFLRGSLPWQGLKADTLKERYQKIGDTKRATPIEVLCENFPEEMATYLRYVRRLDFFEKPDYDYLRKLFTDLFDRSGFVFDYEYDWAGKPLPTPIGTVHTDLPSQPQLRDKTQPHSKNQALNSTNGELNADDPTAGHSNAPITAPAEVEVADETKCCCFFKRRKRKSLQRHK
Source text: as §1

GSK3α = biological target: T3, GSK3α (Homo sapiens, UniProt P49840); assay: scanMAX binding assay, GSK3α; settings: Percent of Control; legend and method: 1 μM
T3 construct: purchased Eurofins DiscoverX Corporation
Source text: (§2) As described previously, this commercial assay platform screens against 403 WT human kinases in binding assays and provides PoC values ([73]).

CK1γ3 = biological target: T4, CK1γ3 (Homo sapiens, UniProt Q9Y6M4); assay: scanMAX binding assay, CK1γ3; settings: Percent of Control; legend and method: 1 μM; read-out: CK1γ3 PoC @ 1 µM
T4 construct: purchased Eurofins
Source text: as §2

CK1γ1 [2] = biological target: T1, CK1γ1; assay: scanMAX binding assay, CK1γ1; settings: Percent of Control; legend and method: 1 μM; read-out: CK1γ1 PoC @ 1 µM
Source text: as §2

DYRK1B = biological target: T5, DYRK1B (Homo sapiens, UniProt Q9Y463); assay: scanMAX binding assay, DYRK1B; settings: Percent of Control; legend and method: 1 μM; read-out: DYRK1B PoC @ 1 µM
T5 construct: purchased Eurofins DiscoverX Corporation
T5 sequence (Q9Y463 whole entry): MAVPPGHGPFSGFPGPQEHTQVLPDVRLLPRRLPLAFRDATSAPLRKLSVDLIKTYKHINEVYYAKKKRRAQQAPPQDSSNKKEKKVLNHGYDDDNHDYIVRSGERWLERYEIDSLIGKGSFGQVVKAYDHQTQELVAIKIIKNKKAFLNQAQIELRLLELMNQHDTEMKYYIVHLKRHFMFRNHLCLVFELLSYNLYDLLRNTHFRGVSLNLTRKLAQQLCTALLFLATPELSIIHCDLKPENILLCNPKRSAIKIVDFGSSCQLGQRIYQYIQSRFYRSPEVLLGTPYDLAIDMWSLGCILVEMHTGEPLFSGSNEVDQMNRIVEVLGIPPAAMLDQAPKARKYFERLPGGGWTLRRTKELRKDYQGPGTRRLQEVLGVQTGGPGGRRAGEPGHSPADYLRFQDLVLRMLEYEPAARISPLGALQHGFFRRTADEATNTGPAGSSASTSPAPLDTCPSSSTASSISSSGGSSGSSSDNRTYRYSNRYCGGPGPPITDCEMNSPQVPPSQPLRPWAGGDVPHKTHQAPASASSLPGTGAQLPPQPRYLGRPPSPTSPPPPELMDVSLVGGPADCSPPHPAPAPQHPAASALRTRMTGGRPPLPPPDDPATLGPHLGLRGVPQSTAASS
Source text: as §2

CSNK1D = CSNK1D (Homo sapiens, UniProt P48730); assay: scanMAX binding assay, CSNK1D; settings: Percent of Control; legend and method: 1 μM; read-out: CSNK1D PoC @ 1 µM
Sequence of CSNK1D (P48730 whole entry): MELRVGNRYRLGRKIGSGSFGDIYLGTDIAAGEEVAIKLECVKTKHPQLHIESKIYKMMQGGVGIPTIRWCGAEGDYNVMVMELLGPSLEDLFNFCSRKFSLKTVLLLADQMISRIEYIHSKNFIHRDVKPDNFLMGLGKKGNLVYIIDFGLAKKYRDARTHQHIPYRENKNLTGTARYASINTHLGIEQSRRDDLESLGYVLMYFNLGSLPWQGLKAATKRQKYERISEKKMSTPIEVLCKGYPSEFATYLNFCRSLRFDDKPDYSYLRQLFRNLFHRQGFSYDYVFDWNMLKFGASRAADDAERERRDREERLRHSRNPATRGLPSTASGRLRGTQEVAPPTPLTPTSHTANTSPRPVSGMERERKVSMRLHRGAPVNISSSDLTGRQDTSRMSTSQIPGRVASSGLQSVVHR
Source text: as §2

CSNK1E = biological target: T6, CSNK1E (Homo sapiens, UniProt P49674); assay: scanMAX binding assay, CSNK1E; settings: Percent of Control; legend and method: 1 μM; read-out: CSNK1E PoC @ 1 µM
T6 construct: purchased Eurofins DiscoverX Corporation
T6 sequence (P49674 whole entry): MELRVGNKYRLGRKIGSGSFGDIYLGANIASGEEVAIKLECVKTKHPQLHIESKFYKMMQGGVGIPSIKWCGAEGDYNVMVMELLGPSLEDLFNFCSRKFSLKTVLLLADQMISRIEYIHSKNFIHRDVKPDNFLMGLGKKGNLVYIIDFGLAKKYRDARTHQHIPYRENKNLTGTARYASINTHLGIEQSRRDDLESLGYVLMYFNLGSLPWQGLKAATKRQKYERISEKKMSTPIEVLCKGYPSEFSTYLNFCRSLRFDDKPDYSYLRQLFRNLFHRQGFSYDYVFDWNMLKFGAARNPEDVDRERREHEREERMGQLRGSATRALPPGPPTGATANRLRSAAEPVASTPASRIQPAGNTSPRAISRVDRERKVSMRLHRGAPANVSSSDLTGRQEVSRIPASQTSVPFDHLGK
Source text: as §2

CIT = biological target: T7, CIT (Homo sapiens, UniProt O14578); assay: scanMAX binding assay, CIT; settings: Percent of Control; legend and method: 1 μM; read-out: CIT PoC @ 1 µM
T7 construct: purchased Eurofins DiscoverX Corporation
T7 sequence (O14578 whole entry): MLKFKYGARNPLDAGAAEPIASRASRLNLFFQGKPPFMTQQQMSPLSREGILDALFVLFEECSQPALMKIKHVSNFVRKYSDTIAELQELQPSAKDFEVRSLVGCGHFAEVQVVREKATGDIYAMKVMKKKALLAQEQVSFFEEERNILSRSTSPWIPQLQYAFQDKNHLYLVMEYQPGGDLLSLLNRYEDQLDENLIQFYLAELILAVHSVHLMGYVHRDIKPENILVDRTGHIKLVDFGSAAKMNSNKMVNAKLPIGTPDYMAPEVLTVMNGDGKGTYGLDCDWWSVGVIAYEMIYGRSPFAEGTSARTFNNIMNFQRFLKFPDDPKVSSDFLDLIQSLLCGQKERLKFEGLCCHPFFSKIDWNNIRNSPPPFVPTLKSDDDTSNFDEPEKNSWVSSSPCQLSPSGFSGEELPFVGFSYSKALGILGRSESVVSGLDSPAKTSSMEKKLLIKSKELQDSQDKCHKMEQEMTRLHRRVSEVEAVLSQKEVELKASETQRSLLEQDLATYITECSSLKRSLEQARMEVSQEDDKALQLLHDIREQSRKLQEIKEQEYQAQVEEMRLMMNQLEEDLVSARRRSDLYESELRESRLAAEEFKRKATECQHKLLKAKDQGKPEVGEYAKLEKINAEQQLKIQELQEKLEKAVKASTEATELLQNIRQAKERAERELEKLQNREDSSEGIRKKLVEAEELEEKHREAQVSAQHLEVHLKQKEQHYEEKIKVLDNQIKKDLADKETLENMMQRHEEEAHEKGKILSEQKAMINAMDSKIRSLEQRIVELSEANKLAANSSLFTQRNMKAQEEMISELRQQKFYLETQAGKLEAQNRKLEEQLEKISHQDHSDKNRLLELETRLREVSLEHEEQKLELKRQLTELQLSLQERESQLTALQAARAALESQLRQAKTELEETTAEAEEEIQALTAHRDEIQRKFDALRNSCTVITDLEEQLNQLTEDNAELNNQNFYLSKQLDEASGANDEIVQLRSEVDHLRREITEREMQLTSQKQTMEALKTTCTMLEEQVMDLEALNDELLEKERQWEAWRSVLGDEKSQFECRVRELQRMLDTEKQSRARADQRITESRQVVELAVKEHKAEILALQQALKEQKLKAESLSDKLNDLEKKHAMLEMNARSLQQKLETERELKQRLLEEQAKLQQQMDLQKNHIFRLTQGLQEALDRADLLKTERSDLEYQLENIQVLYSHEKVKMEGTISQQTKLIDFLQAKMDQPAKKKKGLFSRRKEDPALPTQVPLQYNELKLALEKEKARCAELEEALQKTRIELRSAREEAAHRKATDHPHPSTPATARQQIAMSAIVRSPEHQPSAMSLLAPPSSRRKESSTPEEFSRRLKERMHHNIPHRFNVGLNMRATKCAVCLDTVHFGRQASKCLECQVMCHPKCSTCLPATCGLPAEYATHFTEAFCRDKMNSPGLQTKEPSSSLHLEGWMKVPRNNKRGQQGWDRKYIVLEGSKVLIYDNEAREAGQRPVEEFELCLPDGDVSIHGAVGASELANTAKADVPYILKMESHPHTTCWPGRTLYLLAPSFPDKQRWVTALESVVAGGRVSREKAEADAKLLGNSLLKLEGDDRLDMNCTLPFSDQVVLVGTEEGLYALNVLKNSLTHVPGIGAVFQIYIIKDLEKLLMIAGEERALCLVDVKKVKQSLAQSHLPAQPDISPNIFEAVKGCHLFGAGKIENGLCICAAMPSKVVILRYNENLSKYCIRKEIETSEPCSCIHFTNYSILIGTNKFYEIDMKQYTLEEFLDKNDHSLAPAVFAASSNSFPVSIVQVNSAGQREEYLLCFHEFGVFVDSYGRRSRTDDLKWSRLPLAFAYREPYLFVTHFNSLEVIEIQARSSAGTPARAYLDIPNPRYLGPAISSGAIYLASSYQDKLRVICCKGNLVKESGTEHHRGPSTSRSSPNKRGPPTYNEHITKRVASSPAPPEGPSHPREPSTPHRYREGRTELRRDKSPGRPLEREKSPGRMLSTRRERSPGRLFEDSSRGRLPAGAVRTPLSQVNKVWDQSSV
Source text: as §2

TAK1 = biological target: T8, TAK1 (Homo sapiens, UniProt O43318); assay: scanMAX binding assay, TAK1; settings: Percent of Control; legend and method: 1 μM; read-out: TAK1 PoC @ 1 µM
T8 construct: purchased Eurofins DiscoverX Corporation (scanMAX)
T8 sequence (O43318 whole entry): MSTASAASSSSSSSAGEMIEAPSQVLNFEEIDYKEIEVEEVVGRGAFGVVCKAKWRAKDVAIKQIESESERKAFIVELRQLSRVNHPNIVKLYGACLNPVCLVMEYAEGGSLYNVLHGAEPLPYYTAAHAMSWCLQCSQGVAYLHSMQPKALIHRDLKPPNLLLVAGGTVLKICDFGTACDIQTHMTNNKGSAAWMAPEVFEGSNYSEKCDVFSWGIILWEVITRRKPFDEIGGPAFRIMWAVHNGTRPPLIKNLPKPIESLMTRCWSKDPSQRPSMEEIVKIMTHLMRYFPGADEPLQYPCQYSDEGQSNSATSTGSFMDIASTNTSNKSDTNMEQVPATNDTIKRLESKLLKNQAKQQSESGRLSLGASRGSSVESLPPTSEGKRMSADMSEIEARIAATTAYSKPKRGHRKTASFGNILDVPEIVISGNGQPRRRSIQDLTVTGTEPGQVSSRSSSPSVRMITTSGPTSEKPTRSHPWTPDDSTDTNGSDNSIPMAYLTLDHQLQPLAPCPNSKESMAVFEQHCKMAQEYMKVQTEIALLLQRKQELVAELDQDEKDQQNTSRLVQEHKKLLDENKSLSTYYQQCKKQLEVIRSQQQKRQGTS
Source text: as §2

CLK2 = biological target: T9, CLK2 (Homo sapiens, UniProt P49760); assay: scanMAX binding assay, CLK2; settings: Percent of Control; legend and method: 1 μM; read-out: CLK2 PoC @ 1 µM
T9 construct: purchased Eurofins DiscoverX Corporation (scanMAX)
Source text: as §2

[3] = tested on: BAR reporter (β-catenin-dependent WNT signaling); assay: BAR luciferase transcriptional reporter assay in HEK293T B/R cells; type: cell-based, human; settings: HEK293T B/R cells transfected 14 h, 0.1, 1.0 or 10 μM FP1 for 18 h
Experimental: All luciferase reporter assays were performed as previously described ([15], [43]). […] In both loss-of-function and gain-of-function experiments, treatments (WNT3A CM or drug) were added 18 h before harvesting cells. Conditions were plated in triplicate, and Renilla normalized values were averaged across triplicates to yield the data presented and standard error. Each assay was repeated in biological triplicate, unless otherwise stated. Firefly luciferase and the Renilla control were detected using the Promega Dual-Luciferase Reporter Assay System per the manufacturer’s protocol (Promega; catalog no.: E1960). Plates were read on the Victor Nivo plate reader (PerkinElmer).

LRP6 = assay: W. blot of LRP6 phosphorylation after WNT3A in RKO cells; type: cell-based, human; settings: RKO cells pretreated 1 h
Experimental: Standard W. blot techniques were utilized and performed as previously described ([15], [43]). Briefly, cells were lysed in RIPA lysis buffer, flash frozen on dry ice, and then cleared at high speed for 10 min at maximum speed. Protein concentration was determined by a bicinchoninic acid assay following kit specifications. Samples were balanced, and NuPAGE 4× SDS loading buffer (Thermo Fisher Scientific; catalog no.: NP0007) containing DTT was added to each sample and heated for 10 min at 70 °C. Samples were run on a NuPAGE 4 to 12% Bis–Tris Protein Gel (Thermo Fisher Scientific; catalog no.: NP0321) and then transferred to a nitrocellulose membrane. The membrane was then blocked and incubated overnight with primary antibody at 4 °C with rotation, washed with Tris-buffered saline with Tween-20, incubated with secondary antibody, washed with Tris-buffered saline with Tween-20, and imaged. Images were taken using a LiCOR Odyssey CLx imager and quantified with LiCOR software (LiCOR Biosciences). All antibodies were used at a concentration of 1:1000, with the exception of loading controls, which were used at 1:10,000. […]

For COc1cnc(COc2ccc(F)c(F)c2)cc1-c1cc2c([nH]1)CCNC2=O [FP1-24-2, 2-(2-((3,4-difluorophenoxy)methyl)-5-methoxypyridin-4-yl)-1,5,6,7-tetrahydro-4H-pyrrolo[3,2-c]pyridin-4-one], the IC50 (CK1γ1 [1]) was < 15 nM and 5.29 nM, the IC50 (CK1γ2) was < 15 nM and 2.22 nM and the “GSK3α PoC @ 1 µM” value (GSK3α) was “did not inhibit”. It also gave a remaining binding at 1 µM (CK1γ3) of 0.9%, a remaining binding at 1 µM (CK1γ1 [2]) of 8.5% and a remaining binding at 1 µM (DYRK1B) of 7.1%. It also gave a remaining binding at 1 µM (CSNK1D) of 0%, a remaining binding at 1 µM (CSNK1E) of 0.3% and a remaining binding at 1 µM (CIT) of 0.6%. The remaining binding at 1 µM (TAK1) was 6.9%, the remaining binding at 1 µM (CLK2) was 7.2% and the “BAR activity with CK1γ3 overexpression” value [3] was “decrease”. For the same compound, the “phosphorylation of LRP6 at site S1490” value (LRP6; WNT3A 30 or 60 min, compared with dimethyl sulfoxide control) was “diminished” and the “LRP6 phosphorylation at T1479” value (LRP6; then exposed to WNT3A 30 or 60 min) was “did not increase”.
